Source: ChEMBL document CHEMBL3885881, “DrugMatrix”

Species: Rattus norvegicus
Assay type: toxicity, organism-based, Sprague-Dawley
Details: in vivo, ip, 24 h, route intraperitoneal, time 1 day, vehicle .1 % RSA/SALINE
[1] = 0 mg/kg, vehicle control, tissue Blood, dose level Control
[2] = 0 mg/kg, vehicle control, tissue Plasma, dose level Control
[3] = […], tissue Blood, dose 0.25 mg/Kg, dose level High
[4] = […], tissue Plasma, dose 0.25 mg/Kg, dose level High

Description: DrugMatrix - Regimen: Single

TNF-ALPHA, RAT
ABSOLUTE EOSINOPHIL [1]: 109.33 CELLS/uL | ABSOLUTE LYMPHOCYTE [1]: 13180.67 CELLS/uL | ABSOLUTE MONOCYTE [1]: 354 CELLS/uL | ABSOLUTE SEGMENTED NEUTROPHIL [1]: 1756 CELLS/uL | BASOPHIL [1]: 0% | EOSINOPHIL [1]: 0.67% | ERYTHROCYTE COUNT [1]: 5.38 x10E6/uL | HEMOGLOBIN [1]: 12.57 G/DL | LEUKOCYTE COUNT [1]: 15.4 x10E3/uL | LYMPHOCYTE [1]: 85% | MEAN CORPUSCULAR HEMOGLOBIN [1]: 23.37 pg | MEAN CORPUSCULAR HEMOGLOBIN CONCENTRATION [1]: 38.3 G/DL | NEUTROPHIL [1]: 12% | NUCLEATED RED BLOOD CELLS [1]: 0 /100WBC | PLATELET COUNT [1]: 832.33 x10E3/uL | ALANINE AMINOTRANSFERASE [2]: 37.33 u/L | ALBUMIN [2]: 4 G/DL | ALKALINE PHOSPHATASE [2]: 344.67 u/L | ASPARTATE AMINOTRANSFERASE [2]: 69.33 u/L | BLOOD UREA NITROGEN [2]: 13.67 mg/dL | CARBON DIOXIDE [2]: 28.33 mmol/L | CHLORIDE [2]: 99.67 MEQ/L | CHOLESTEROL [2]: 73.67 mg/dL | CREATINE PHOSPHOKINASE [2]: 270 u/L | CREATININE [2]: 0.19 mg/dL | GLUCOSE [2]: 176.33 mg/dL | LACTATE DEHYDROGENASE [2]: 160 u/L | PHOSPHORUS [2]: 13.47 mg/dL | POTASSIUM [2]: 6.77 MEQ/L | TOTAL BILIRUBIN [2]: 0.13 mg/dL | TOTAL PROTEIN [2]: 6.07 G/DL | URIC ACID [2]: 1.87 mg/dL | ABSOLUTE EOSINOPHIL [3]: 57.67 CELLS/uL | ABSOLUTE LYMPHOCYTE [3]: 13018 CELLS/uL | ABSOLUTE MONOCYTE [3]: 366 CELLS/uL | ABSOLUTE SEGMENTED NEUTROPHIL [3]: 1925 CELLS/uL | BASOPHIL [3]: 0% | EOSINOPHIL [3]: 0.33% | ERYTHROCYTE COUNT [3]: 5.31 x10E6/uL | HEMATOCRIT [3]: 32.37% | HEMOGLOBIN [3]: 12.23 G/DL | LEUKOCYTE COUNT [3]: 15.37 x10E3/uL | LYMPHOCYTE [3]: 85% | MEAN CORPUSCULAR HEMOGLOBIN [3]: 23.03 pg | MEAN CORPUSCULAR HEMOGLOBIN CONCENTRATION [3]: 37.8 G/DL | MEAN CORPUSCULAR VOLUME [3]: 60.97 fL | NEUTROPHIL [3]: 12.33% | NUCLEATED RED BLOOD CELLS [3]: 0.33 /100WBC | PLATELET COUNT [3]: 1023.67 x10E3/uL | ALANINE AMINOTRANSFERASE [4]: 40 u/L | ALKALINE PHOSPHATASE [4]: 339.67 u/L | ASPARTATE AMINOTRANSFERASE [4]: 85.67 u/L | BLOOD UREA NITROGEN [4]: 13.67 mg/dL | CHOLESTEROL [4]: 76.33 mg/dL | CREATINE PHOSPHOKINASE [4]: 860.67 u/L | CREATININE [4]: 0.21 mg/dL | GLUCOSE [4]: 158.33 mg/dL | LACTATE DEHYDROGENASE [4]: 124 u/L | PHOSPHORUS [4]: 11.93 mg/dL | POTASSIUM [4]: 6.39 MEQ/L | SODIUM [4]: 145.63 MEQ/L | TOTAL BILIRUBIN [4]: 0.2 mg/dL | TOTAL PROTEIN [4]: 6 G/DL
